Earlier results, collected in patent US8581001B2, “Metformin-cysteine prodrug” (Codman & Shurtleff, priority 2010, dated 2013).
Values belong to the molecule of their own block, whether it stands above or below them.

What was measured:
[1] = tested on: mice
[2] = tested on: human patients; settings: human patients (NASH)
[3] = not given; remark: listed apart in the source
[4] = target: LAT1 (Homo sapiens, UniProt Q01650)
[5] = target: T1, LAT2 (Homo sapiens, UniProt Q9UHI5)
T1 sequence (Q9UHI5 1-535): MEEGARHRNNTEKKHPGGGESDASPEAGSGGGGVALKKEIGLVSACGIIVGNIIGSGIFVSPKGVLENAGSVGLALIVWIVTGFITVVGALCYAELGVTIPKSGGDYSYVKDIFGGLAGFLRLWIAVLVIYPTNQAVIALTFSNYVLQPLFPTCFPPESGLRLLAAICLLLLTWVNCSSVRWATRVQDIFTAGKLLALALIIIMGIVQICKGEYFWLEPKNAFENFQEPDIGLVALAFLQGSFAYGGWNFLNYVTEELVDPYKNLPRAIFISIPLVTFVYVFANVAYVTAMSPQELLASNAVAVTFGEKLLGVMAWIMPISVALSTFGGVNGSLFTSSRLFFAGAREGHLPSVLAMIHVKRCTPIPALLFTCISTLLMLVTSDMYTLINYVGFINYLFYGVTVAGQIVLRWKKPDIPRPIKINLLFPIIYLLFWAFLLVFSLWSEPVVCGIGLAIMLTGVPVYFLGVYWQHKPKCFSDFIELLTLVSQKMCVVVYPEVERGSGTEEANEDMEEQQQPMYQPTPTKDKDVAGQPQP
T1 sequence (P08195 1-529 partner): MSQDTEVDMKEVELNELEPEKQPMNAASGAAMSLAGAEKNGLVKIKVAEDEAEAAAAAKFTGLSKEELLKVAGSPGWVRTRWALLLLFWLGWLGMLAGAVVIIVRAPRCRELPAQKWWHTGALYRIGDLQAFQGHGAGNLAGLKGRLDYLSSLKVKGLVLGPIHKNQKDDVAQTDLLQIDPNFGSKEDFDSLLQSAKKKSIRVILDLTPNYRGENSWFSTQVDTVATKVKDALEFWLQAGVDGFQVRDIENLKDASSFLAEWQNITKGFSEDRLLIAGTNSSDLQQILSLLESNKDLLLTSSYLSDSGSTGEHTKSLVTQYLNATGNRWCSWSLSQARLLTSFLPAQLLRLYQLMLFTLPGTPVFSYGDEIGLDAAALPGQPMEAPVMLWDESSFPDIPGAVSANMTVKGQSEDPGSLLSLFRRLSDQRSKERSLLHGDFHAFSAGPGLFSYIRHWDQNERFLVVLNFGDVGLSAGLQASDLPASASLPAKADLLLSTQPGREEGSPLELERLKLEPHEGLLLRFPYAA

Sequence of LAT1 (Q01650 whole entry, species assumed, one chain of several): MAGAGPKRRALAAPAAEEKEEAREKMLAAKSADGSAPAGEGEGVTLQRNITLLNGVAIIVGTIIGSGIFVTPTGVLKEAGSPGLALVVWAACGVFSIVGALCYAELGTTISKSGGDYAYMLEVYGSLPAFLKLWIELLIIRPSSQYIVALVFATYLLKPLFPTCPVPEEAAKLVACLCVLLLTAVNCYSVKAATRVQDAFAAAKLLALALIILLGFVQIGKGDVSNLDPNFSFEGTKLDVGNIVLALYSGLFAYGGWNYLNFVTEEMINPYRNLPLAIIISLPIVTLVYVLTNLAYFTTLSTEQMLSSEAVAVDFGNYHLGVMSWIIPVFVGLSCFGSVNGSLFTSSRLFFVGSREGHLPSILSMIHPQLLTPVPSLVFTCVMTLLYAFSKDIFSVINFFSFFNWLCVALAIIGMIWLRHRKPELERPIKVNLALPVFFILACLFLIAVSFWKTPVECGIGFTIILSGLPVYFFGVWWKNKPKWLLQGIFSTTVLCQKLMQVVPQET

SMILES: N[C@@H](CCC(=O)N[C@@H](CSSC[C@H](N)C(=O)O)C(=O)NCC(=O)O)C(=O)O [Cy-LLGSH]
- protection against acetaminophen-induced hepatotoxicity [1]: highly effective

- absorption in the colon (colon): poorly absorbed
- uptake in the small intestine (small intestine): effectively taken up
- window in which metformin is above ½ of its Cmax ([3]; FIG. 4 of US 2007-0154548): about 6 hours
- time window for effective plasma concentrations ([3]; in vivo): about 6 hours
SMILES: CN(C)C(=N)N=C(N)N [metformin]
- amelioration of the complications of non-alcoholic fatty liver disease [2]: neither metformin nor NAC alone provided any significant benefits

SMILES: CC(=O)N[C@@H](CS)C(=O)O [NAC, n-acetylcysteine]
- amelioration of the complications of non-alcoholic fatty liver disease [2]: neither metformin nor NAC alone provided any significant benefits

SMILES: N[C@@H](CSN=O)C(=O)O [s-nitroso-L-cysteine]
- transport by LAT1 transporter [4]: efficiently transported
- transport by LAT2 transporter [5]: efficiently transported
